The record followed here is patent publication US8975371B2, “Melanoma antigen peptide and uses thereof” (INSERM (Institut National de la Sante et de la Recherche …, priority 2008, dated 2015).

What all share (format): cell-based, human
In test [1] the test system is M170.51 CTL clone / peptide-pulsed T2 cells. The test is described as follows: Cytotoxicity of M170.51 CTL clone against peptide-pulsed T2 cells (4 h 51Cr release). The settings on record: peptide loaded on T2 cells. The procedure:
(§1) (A) Structure of meloe cDNA. Black boxes correspond to ORFs tested for recognition by the CTL clone. (B) M170.48 and M170.51 TNF responses to COS-7 cells (E/T ratio 1/3) transfected with indicated plasmids. T cell clone was added 2 days after the transfection and the CTL clone reactivity was assessed by a TNF release assay. (C) Amino acid sequences of the ORF 1230-1370 and the ORF 285-404 of meloe isolated from M134 cDNA library. (D and E) Cytotoxicity of M170.48 CTL clone (D) and M170.51 CTL clone(E) against peptide-pulsed T2 cells. Target cells were chromium labeled for 60 min and incubated for 30 min with a range of the indicated peptides. T cell clones were added at an E/T ratio of 10/1 and chromium release was then measured after a 4 h incubation period.
(§2) Cytotoxic activity of T cells was measured in a standard 4-h assay against ^51Cr-labeled cells (peptide-loaded T2 cells or tumor cell lines) (23). […] After staining, cells were resuspended in PBS and analyzed on a LSR flow cytometer using Cell Quest software. […]

Test [2] relates to M170.48 CTL clone / peptide-pulsed T2 cells. The test is described as follows: Cytotoxicity of M170.48 CTL clone against peptide-pulsed T2 cells (4 h 51Cr release). The settings on record: peptide loaded on T2 cells. The procedure:
as §1, §2

In test [3] the test system is MELOE-1 specific T cell clones / peptide-loaded T2 cells. The test is described as follows: Relative avidity of MELOE-1 specific T cell clones, 4-h 51Cr assay against peptide-loaded T2 cells. The procedure: Cytotoxicity of MELOE-1 specific CTL clones against peptide-pulsed T2 cells. Target cells were chromium labeled for 60 min and incubated for 30 min with a range of the MELOE-136-44 peptide. T cell clones derived from healthy donors (A), melanoma patients PBMC (B) and TIL (C) were added at an E/T ratio of 10/1 and chromium release was then measured after a 4 h incubation period. (D) Mean EC50 of the MELOE-1 specific T cell clones in response to the MELOE-136-44 peptide, according to their origin. EC50 were compared using statistical analysis done with InStat 2.01. Data were analyzed using Kruskal-Wallis comparison test. *p=0.019, considered significant.
The relative avidity of […] specific T cell clones and their anti-tumor reactivity was measured respectively in a standard 4-h assay against ^51Cr-labeled peptide-loaded T2 cells and towards HLA-A2 melanoma cell lines. Briefly, target cells (peptide pulsed-T2 or melanoma cells) were incubated with 100 μCi Na2^51CrO4 (Oris Industrie, Gif-sur-Yvette, France) at 37° C. for 1 h. For peptide recognition assays, T2 cells were preincubated with a range of […] peptide concentrations for 1 h at 37° C. […] Data were analyzed using Kruskal-Wallis comparison test, followed by Dunn'post test. […]

Where two headings read alike, the source gives them in different places.

As for RCPPKPPLA, the “recognition by M170.51 T cell clone” value in test [1] is “recognized”. In test [1] (M170.51 CTL clone, E/T ratio 10/1, 4 h chromium release, read-out: half maximal lysis (converted)), the EC50 was 50 nM.

As to TLNDECWPA, the “recognition by M170.48 T cell clone” value in test [2] is “recognized”. Besides, the EC50 in test [2] (M170.48 CTL clone, E/T ratio 10/1, 4 h chromium release, read-out: half maximal lysis) was found to be 10 nM; in test [3] (healthy donor clonotype HD1.21, read-out: EC50 of clonotype HD1.21), 10 nM; in test [3] (healthy donor clonotype HD3.38, read-out: EC50 of clonotype HD3.38), 1 nM.
